Series [1] concerns the target Vasopressin V1a receptor (Mus musculus) (UniProt Q62463). Briefly: In vivo antagonist activity at vasopressin V1a receptor in male NMRI mouse assessed as inhibition of oxytocin-induced scratching behavior at 0.1 mg/kg, po pretreated with compound for 60 mins followed by oxytocin administration and measured after 1 hrs relative to control. The class given is functional, organism-based. Particulars: time 120.0 min.

Series [2] in a line: Apparent permeability across apical to basolateral side in vinblastine treated human Caco-2 cells incubated for 15 to 60 mins by HPLC analysis. In kind it is ADME, cell-based. Particulars: time 15-60 min. For orientation: Caco-2 cells form a polarised layer with tight junctions and transporters.
The target in series [3] is T1, Vasopressin V1a receptor (Homo sapiens, UniProt P37288). Briefly: Displacement of [3H]AVP from human vasopressin V1a receptor expressed in human 1321N1 cells. The class given is cell-based. (In general: Displacement assays read how much labelled ligand stays bound in the presence of the test substance.)
T1 sequence (P37288 whole entry): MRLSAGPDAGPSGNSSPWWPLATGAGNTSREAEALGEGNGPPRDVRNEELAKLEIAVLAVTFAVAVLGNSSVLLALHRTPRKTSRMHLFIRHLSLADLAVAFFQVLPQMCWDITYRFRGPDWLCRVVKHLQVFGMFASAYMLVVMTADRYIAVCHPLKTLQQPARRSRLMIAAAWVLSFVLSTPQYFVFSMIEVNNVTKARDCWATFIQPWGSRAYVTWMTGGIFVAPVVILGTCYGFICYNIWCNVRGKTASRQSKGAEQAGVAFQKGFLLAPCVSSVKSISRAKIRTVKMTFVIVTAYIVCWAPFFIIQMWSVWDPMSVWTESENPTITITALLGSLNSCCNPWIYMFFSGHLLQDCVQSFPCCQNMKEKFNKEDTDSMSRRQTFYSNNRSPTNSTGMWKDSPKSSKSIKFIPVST
Series [4] concerns the target Voltage-gated inwardly rectifying potassium channel KCNH2 (Homo sapiens, UniProt Q12809). Kind of series: Inhibition of human ERG expressed in CHO cells at -80 mV holding potential measured for 7 to 10 mins by automated patch clamp method. The class given is toxicity, cell-based. Background: The patch-clamp technique gives a direct electrical read-out from membranes.

Series [5] has as its target Vasopressin V1a receptor (Mus musculus) (UniProt Q62463). Briefly: In vivo antagonist activity at vasopressin V1a receptor in male NMRI mouse assessed as inhibition of oxytocin-induced scratching behavior at 0.3 mg/kg, po pretreated with compound for 60 mins followed by oxytocin administration and measured after 1 hrs relative to control. The class given is functional, organism-based. Particulars: time 120.0 min.

The nature of series [6]: Metabolic stability in mouse liver microsomes assessed as intrinsic clearance at 1 uM in presence of NADPH. In kind it is ADME, Microsome. Particulars: read-out: CLH.
In series [7] the target is Vasopressin V1a receptor (Mus musculus) (UniProt Q62463). Briefly: In vivo antagonist activity at vasopressin V1a receptor in male NMRI mouse assessed as inhibition of oxytocin-induced scratching behavior at 3 mg/kg, po pretreated with compound for 60 mins followed by oxytocin administration and measured after 1 hrs relative to control. The class given is functional, organism-based. Particulars: time 120.0 min.
Vasopressin V1a receptor (Mus musculus), sequence (Q62463 whole entry, looked up): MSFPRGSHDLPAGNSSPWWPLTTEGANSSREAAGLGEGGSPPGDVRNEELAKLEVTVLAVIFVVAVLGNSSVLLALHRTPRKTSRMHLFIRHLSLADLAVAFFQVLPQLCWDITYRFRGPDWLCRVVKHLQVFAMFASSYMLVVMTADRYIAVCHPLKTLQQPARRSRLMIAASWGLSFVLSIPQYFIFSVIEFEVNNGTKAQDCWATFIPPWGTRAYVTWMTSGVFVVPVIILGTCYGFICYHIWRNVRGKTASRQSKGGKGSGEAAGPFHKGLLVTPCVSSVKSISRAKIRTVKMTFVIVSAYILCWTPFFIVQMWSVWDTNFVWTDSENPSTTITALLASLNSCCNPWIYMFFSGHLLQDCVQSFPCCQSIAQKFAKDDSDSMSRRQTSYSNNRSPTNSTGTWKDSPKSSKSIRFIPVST

The target is the same in series [8]. Kind of series: In vivo antagonist activity at vasopressin V1a receptor in male NMRI mouse assessed as inhibition of oxytocin-induced scratching behavior at 1 mg/kg, po pretreated with compound for 60 mins followed by oxytocin administration and measured after 1 hrs relative to control. The class given is functional, organism-based. Particulars: time 120.0 min.

Series [9] in a line: Metabolic stability in rat liver microsomes assessed as intrinsic clearance at 1 uM in presence of NADPH. In kind it is ADME, Microsome. Particulars: read-out: CLH.
A short description of series [10]: Metabolic stability in human liver microsomes assessed as intrinsic clearance at 1 uM in presence of NADPH. The class given is ADME, Microsome. Particulars: read-out: CLH.
Series [11] concerns the target Vasopressin V2 receptor (Homo sapiens, UniProt P30518). Briefly: Displacement of [3H]AVP from human vasopressin V2 receptor expressed in human 1321N1 cells assessed as inhibition constant. In kind it is cell-based.
The target in series [12] is T1, Vasopressin V1a receptor. Kind of series: Displacement of [3H]AVP from human vasopressin V1a receptor expressed in human 1321N1 cells assessed as inhibition constant. The class given is cell-based.
Series [13] deals with Vasopressin V1a receptor (Mus musculus, UniProt Q62463). Briefly: Displacement of [3H]AVP from mouse vasopressin V1a receptor expressed in human 1321N1 cells assessed as inhibition constant. The class given is cell-based.
Vasopressin V1a receptor (Mus musculus, UniProt Q62463), sequence (Q62463 whole entry): as the sequence (Q62463 whole entry, looked up) above

This is an account of results in ChEMBL document CHEMBL6074677, “Development of dual V1a/V2 antagonists containing triazolobenzazepine scaffold” (Eur J Med Chem, 2025).

Voltage-gated inwardly rectifying potassium channel KCNH2, sequence (Q12809 whole entry): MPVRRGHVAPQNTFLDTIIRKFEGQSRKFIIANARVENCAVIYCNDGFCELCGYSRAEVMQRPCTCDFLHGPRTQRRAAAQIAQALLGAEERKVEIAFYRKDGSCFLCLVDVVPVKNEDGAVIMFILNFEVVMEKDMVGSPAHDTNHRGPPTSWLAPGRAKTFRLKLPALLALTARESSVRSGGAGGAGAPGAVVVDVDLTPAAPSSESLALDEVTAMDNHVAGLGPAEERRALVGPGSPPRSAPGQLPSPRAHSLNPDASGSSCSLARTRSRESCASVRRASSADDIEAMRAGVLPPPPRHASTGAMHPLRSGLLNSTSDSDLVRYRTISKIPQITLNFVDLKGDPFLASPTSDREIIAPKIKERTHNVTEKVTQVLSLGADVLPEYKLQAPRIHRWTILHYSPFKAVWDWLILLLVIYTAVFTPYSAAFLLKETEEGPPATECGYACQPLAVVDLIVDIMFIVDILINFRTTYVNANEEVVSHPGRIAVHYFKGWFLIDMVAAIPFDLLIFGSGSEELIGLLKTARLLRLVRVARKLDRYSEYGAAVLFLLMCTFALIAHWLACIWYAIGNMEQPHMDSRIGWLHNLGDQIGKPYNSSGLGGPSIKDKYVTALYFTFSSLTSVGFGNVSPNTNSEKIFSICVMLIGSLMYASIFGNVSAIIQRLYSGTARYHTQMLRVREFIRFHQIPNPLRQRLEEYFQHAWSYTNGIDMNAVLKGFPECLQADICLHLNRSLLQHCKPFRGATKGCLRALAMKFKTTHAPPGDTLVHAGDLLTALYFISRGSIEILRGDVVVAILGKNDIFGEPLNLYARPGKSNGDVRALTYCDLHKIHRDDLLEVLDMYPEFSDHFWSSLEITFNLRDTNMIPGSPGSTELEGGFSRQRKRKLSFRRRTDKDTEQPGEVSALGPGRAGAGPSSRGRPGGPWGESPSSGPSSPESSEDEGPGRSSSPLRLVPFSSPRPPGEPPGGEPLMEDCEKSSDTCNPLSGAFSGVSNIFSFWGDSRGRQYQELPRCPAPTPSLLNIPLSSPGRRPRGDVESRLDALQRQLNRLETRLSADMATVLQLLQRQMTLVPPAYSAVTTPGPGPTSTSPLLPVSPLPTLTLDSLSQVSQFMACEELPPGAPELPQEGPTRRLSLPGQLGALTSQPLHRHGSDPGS
Vasopressin V2 receptor, sequence (P30518 whole entry): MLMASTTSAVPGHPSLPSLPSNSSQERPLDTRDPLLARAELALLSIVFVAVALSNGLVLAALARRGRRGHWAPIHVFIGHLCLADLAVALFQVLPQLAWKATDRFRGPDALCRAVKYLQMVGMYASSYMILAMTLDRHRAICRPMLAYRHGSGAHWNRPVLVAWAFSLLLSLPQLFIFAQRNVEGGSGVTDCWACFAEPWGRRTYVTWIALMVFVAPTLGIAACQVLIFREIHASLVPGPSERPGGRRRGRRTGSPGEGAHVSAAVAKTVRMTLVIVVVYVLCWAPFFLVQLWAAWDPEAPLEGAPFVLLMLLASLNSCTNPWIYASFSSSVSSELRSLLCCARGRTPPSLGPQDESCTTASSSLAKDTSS

As usually defined, the inhibition is the drop in the measured response relative to a control, in per cent. A word on the Papp A→B: it is how fast a substance crosses the layer from the apical side. By IC50 is commonly meant the concentration that gives 50% inhibition. By Ki is commonly meant the equilibrium dissociation constant of an inhibitor or competing ligand from its target. For `Clc1ccc2c(c1)CC1(Cc3nnc(N4CCN(c5cccc6c5OCC6)CC4)n3-2)OCCO1`, the inhibition in series [1] stood at 81%; in [5], 85%; in series [7], 86%; in series [8] it was 91%. Further, the Papp A→B in [2] worked out at 30 ×10⁻⁶ cm/s. Besides, the IC50 is 2.2 nM in [3] and more than 30000 nM in series [4]. In addition, the values for the microsomal CLint at 1 µM in series [6], in series [9] and in series [10] were 27.1 µL/min/mg, 36.9 µL/min/mg and 15.9 µL/min/mg, respectively. Also, the Ki was 0.53 nM in [11], 0.13 nM in series [12] and 0.5 nM in series [13].
For the compound `Clc1ccc2c(c1)CC1(Cc3nnc([C@H]4CC[C@H](Oc5ccccn5)CC4)n3-2)OCCO1`, in series [2], the Papp A→B stood at 59.3 ×10⁻⁶ cm/s. The compound further returned an IC50 in series [4] of 9100 nM. Besides, the inhibition in series [5] came out at 42%; in series [7], 80%; in series [8], 86%. Moreover, the microsomal CLint at 1 µM in series [6] came to 25 µL/min/mg; in [9], 28 µL/min/mg; in [10] it was 13 µL/min/mg.
For the compound `Clc1ccc2c(c1)CC1(Cc3nnc(N4CCN(c5cccc6c5CCO6)CC4)n3-2)OCCO1`, in series [2], the Papp A→B was determined as 30 ×10⁻⁶ cm/s. In series [4], the IC50 was 10000 nM. Also, the microsomal CLint at 1 µM in series [6] was 21.8 µL/min/mg; in series [9], 28.2 µL/min/mg; in series [10], 11.5 µL/min/mg. The Ki was determined as 2.2 nM in [11] and 0.38 nM in series [12].
Regarding `Cc1cccc(N2CCN(c3nnc4n3-c3ccc(Cl)cc3CC3(C4)OCCO3)CC2)c1C`, the figures for the IC50 in series [3] and in series [4] were 5.7 nM and 10000 nM, respectively. Also, the inhibition is 69% in series [5], 104% in [7] and 83% in [8]. In addition, the microsomal CLint at 1 µM in series [6] was determined as 23.3 µL/min/mg; in series [9], 28 µL/min/mg; in [10], 5.8 µL/min/mg. Besides, the Ki came out at 0.7 nM in [11], 0.5 nM in series [12] and 0.4 nM in series [13].
For the compound `COC1(c2ccccc2)CCN(c2nnc3n2-c2ccc(Cl)cc2CC2(C3)OCCO2)CC1`, the Papp A→B in series [2] stood at 34 ×10⁻⁶ cm/s. Moreover, the IC50 in series [4] stood at 11000 nM. In addition, the values for the microsomal CLint at 1 µM in series [6], in series [9] and in series [10] were 51.7 µL/min/mg, 62.2 µL/min/mg and 6.9 µL/min/mg, respectively. The Ki amounted to 11 nM in [11] and 0.17 nM in series [12].
